In US12503463B2, “Aliphatic acid amide derivative” (Sumitomo Pharma Co., Ltd., priority 2019, dated 2025):

Key:
human 5-HT2A receptor [1] = molecular target: T1, human 5-HT2A receptor (Homo sapiens, UniProt P28223); experiment: Test 1: binding activity for human 5-HT2A receptor ([3H]Ketanserin, CHO cell membrane fraction)
Experimental: (§1) Ki value was evaluated from dissociation constant which was calculated from saturated binding tests, and a substrate concentration, and it was used as an index for binding affinity.

human 5-HT7 receptor [2] = molecular target: T2, human 5-HT7 receptor (Homo sapiens, UniProt P34969); experiment: Test 1: binding activity for human 5-HT7 receptor ([3H]SB-269970, CHO cell membrane fraction)
Experimental: as §1

human D2 receptor = molecular target: T3, human D2 receptor (Homo sapiens, UniProt P14416); experiment: Test 1: binding activity for human D2 receptor ([3H]Spiperone, CHO cell membrane fraction)
T3 construct: purchased PerkinElmer, Inc; host or cells: CHO cells (membrane fraction)
Experimental: as §1

human 5-HT2A receptor [3] = molecular target: T1, human 5-HT2A receptor; experiment: Test 2: antagonist activity for human 5-HT2A receptor (aequorin luminescence, CHO-K1 cells); assay type: cell-based; conditions: Gα16
Experimental: (§2) Test 2: Evaluation of Antagonist Activity for Human 5-HT2A Receptor and Human 5-HT7 Receptor
(§3) Aequorin, Gα 16 protein, and each receptor were transiently expressed in CHO-K1 cells (Chinese hamster ovary). The cells were cultivated in a CO2 incubator at 37° C. overnight, seeded into a 384-well plate, and stood at room temperature for 2 hours. Each compound dissolved in DMSO was added thereto, and changes in luminescence were measured by FDSS/μCELL drug discovery screening support system (Hamamatsu Photonics K.K.). As for antagonist activity, inhibitory activity of each compound was calculated by setting the luminescence level of wells to which 10 μmol/L endogenous ligand was added as 100%.

human 5-HT7 receptor [4] = molecular target: T2, human 5-HT7 receptor; experiment: Test 2: antagonist activity for human 5-HT7 receptor (aequorin luminescence, CHO-K1 cells); assay type: cell-based; conditions: Gα16
Experimental: as §2, §3

[5] = Test 3-1: metabolic stability test in human hepatic microsome; assay type: in vitro ADME; conditions: Test 3-1: microsome 0.1 mg/mL, test compound 0.1 μmol/L, 37° C., 30 minutes
Experimental: Test 3-1: Metabolic Stability Test in Human Hepatic Microsome
(§4) The metabolic stability of the present compound in human hepatic microsome was evaluated as mentioned below. Human hepatic microsome was obtained from Xenontech. Human hepatic microsome, NADPH, and each test compound were mixed in 25 mmol/L phosphate buffer solution (pH 7.4) to reach the following concentrations as shown below, and the mixture was incubated at 37° C. for 30 minutes. • Human hepatic microsome: 0.1 mg/mL • NAPDH: 3.2 mmol/L • Test compound: 0.1 μmol/L
(§5) The residual ratio of test compound in each sample after 30 minutes was measured by LC-MS, and the metabolic stability in human hepatic microsome was calculated from the following formula. Metabolic stability in human hepatic microsome(mL/min/mg protein)=−LN(residual ratio)/30/0.1

hERG channel = molecular target: T4, hERG channel (Homo sapiens, UniProt Q12809); experiment: Test 5: inhibitory activity for hERG channel (whole cell patch clamp, hERG-CHO cells); assay type: cell-based
T4 construct: host or cells: hERG-CHO cells
Experimental: Test 5: Evaluation of Inhibitory Activity for hERG Channel
Inhibitory activity of the present compound for hERG channel was measured by whole cell patch clamp method with an auto patch clamp system using CHO cells in which hERG channel involved in human rapidly activating delayed rectifier potassium current (IKr) was forcibly expressed.
hERG-CHO cells purchased from ChanTest Cop. were cultured in a CO2 incubator at 37° C., and dissociated from a flask with trypsin shortly before the measurement of hERG current to prepare a cell suspension.
The cell suspension, the extracellular fluid, the intracellular fluid, and the measurement plate were set in an auto patch clamp system, and hERG current was measured by whole cell patch clamp method. […] Each pulse interval was 15 seconds. The data analysis was carried out with Qube Assay Software (Sophion Sophion). The test was carried out by applying incrementally 4 concentrations of each test compound, and the average of the maximum peak tail currents which were obtained from the last 3 stimulations in each concentration was determined as the evaluated data.

[6] = Test 3-2: metabolic stability test in human hepatic microsome (higher microsome concentration); assay type: in vitro ADME; conditions: Test 3-2: microsome 0.5 or 1.0 mg/mL, test compound 0.1 μmol/L, 30 or 60 minutes
Experimental: Test 3-2: Metabolic Stability Test in Human Hepatic Microsome
as §4, with “For more accurate evaluation of the metabolic stability in human hepatic microsome, the metabolic” for “The metabolic”, “evaluated at an appropriate concentration of human hepatic microsome” for “evaluated”, “for 60” for “for 30”, “microsome: 0.5 or 1.0” for “microsome: 0.1”
as §5, with “of a” for “of”, “30 or 60” for “30”, “ratio)/reaction time/concentration of human hepatic microsome” for “ratio)/30/0.1”

T3 sequence (P14416 whole entry): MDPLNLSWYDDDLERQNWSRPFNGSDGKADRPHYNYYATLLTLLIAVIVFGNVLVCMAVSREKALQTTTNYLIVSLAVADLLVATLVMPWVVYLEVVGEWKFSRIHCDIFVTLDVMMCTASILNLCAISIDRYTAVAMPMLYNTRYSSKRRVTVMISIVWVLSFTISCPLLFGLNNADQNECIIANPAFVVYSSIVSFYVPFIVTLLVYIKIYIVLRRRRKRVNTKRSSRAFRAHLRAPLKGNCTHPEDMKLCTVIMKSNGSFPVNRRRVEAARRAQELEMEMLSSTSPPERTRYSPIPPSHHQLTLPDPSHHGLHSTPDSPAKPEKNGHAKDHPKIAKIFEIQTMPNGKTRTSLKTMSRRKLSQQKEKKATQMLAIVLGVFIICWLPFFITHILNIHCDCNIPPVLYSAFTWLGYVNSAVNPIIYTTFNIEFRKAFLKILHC
T1 sequence (P28223 whole entry): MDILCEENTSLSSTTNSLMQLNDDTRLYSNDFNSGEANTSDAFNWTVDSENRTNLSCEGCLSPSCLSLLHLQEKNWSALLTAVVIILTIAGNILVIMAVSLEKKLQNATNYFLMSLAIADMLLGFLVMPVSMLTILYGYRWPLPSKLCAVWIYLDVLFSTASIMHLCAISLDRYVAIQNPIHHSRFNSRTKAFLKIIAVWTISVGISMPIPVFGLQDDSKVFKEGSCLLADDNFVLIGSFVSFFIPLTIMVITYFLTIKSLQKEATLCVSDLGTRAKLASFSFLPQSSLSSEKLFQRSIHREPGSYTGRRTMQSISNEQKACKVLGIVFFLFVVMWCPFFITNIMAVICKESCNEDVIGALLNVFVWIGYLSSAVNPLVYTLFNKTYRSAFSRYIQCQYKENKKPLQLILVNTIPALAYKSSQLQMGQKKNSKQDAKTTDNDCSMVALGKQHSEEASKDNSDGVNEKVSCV
T4 sequence (Q12809 whole entry): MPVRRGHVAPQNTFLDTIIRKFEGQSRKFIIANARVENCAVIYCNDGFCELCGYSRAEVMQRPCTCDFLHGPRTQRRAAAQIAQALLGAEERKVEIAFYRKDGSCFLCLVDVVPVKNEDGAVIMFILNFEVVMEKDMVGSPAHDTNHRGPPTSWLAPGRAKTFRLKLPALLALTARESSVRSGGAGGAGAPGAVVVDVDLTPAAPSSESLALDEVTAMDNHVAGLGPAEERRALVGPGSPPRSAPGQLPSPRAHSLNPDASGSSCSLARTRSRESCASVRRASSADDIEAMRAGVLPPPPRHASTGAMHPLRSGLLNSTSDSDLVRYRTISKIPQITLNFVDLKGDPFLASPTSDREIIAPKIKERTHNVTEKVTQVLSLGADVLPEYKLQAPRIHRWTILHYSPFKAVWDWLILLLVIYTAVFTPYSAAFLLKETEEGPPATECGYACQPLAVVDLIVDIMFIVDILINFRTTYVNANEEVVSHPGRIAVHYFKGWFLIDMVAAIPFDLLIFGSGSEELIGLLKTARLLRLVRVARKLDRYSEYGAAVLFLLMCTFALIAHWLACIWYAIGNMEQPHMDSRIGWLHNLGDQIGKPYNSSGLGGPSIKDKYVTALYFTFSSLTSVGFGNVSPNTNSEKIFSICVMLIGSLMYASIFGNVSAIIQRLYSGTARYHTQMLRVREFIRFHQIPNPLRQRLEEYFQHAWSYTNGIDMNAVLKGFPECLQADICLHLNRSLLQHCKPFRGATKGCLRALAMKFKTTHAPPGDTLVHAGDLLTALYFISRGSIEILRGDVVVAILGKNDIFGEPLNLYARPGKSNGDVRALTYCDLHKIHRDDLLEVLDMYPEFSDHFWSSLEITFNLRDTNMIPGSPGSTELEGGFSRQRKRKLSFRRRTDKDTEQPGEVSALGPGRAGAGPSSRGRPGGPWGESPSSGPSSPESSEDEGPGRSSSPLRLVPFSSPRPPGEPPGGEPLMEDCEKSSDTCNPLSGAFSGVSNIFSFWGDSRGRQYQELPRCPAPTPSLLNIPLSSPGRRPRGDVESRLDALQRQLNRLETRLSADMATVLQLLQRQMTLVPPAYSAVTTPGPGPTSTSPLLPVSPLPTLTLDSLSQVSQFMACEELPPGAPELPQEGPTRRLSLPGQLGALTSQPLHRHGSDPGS
T2 sequence (P34969 whole entry): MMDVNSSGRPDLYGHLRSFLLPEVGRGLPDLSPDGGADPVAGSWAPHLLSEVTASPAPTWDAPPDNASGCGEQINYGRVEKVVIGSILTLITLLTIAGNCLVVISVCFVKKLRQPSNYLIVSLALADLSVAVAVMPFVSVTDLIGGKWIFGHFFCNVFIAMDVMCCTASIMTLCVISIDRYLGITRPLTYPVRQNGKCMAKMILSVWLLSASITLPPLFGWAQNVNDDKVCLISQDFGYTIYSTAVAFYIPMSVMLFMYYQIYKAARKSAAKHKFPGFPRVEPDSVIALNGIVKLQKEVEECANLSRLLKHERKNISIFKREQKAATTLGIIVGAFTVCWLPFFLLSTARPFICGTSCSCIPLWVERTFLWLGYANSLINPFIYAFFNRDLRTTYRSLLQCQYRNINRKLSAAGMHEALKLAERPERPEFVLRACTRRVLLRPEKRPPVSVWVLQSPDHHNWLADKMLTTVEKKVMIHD

Metabolic stability in human hepatic microsome [5] [mL/min/mg protein] | Metabolic stability in human hepatic microsome [6] [mL/min/mg protein] | Compound | Ki (human 5-HT2A receptor [1]) [nM] | Ki (human 5-HT7 receptor [2]) [nM] | Ki (human D2 receptor; human D2 receptor, [3H]Spiperone) [nM] | D2 Ki/5-HT2A Ki (human D2 receptor; ratio of Ki values) | D2 Ki/5-HT7 Ki (human D2 receptor; ratio of Ki values) | IC50 (human 5-HT2A receptor [3]) [nM] | IC50 (human 5-HT7 receptor [4]) [nM] | IC50 (hERG channel; hERG-CHO cells, auto patch clamp) [nM] | hERG inhibitory IC50 (nmol/L)/5-HT7 Ki (nmol/L) (hERG channel; ratio)
<0.05 | 0.0025 | CCN(CCN1CCC(c2noc3cc(F)ccc23)CC1)C(=O)CCO [Example 17, N-Ethyl-N-{2-[4-(6-fluoro-1,2-benzoisoxazol-3-yl)piperidin-1-yl]ethyl}-3-hydroxypropanamide] |  |  |  |  |  |  |  |  | 
<0.05 | 0.016 | CCN(CCN1CCC(c2noc3cc(F)ccc23)CC1)S(=O)(=O)CCO [Example 51, N-Ethyl-N-{2-[4-(6-fluoro-1,2-benzoisoxazol-3-yl)piperidin-1-yl]ethyl}-2-hydroxyethane-1-sulfonamide] |  |  |  |  |  |  |  |  | 
<0.05 | 0.018 | CCN(CCN1CCC(c2noc3cc(F)ccc23)CC1)C(=O)[C@H](C)O [Example 16, (2S)-N-Ethyl-N-{2-[4-(6-fluoro-1,2-benzoisoxazol-3-yl)piperidin-1-yl]ethyl}-2-hydroxypropanamide] |  |  |  |  |  |  |  |  | 

Compound | Metabolic stability in human hepatic microsome [5] [mL/min/mg protein] | Metabolic stability in human hepatic microsome [6] [mL/min/mg protein] | Ki (human 5-HT2A receptor [1]) [nM] | Ki (human 5-HT7 receptor [2]) [nM] | Ki (human D2 receptor; human D2 receptor, [3H]Spiperone) [nM] | D2 Ki/5-HT2A Ki (human D2 receptor; ratio of Ki values) | D2 Ki/5-HT7 Ki (human D2 receptor; ratio of Ki values) | IC50 (human 5-HT2A receptor [3]) [nM] | IC50 (human 5-HT7 receptor [4]) [nM] | IC50 (hERG channel; hERG-CHO cells, auto patch clamp) [nM] | hERG inhibitory IC50 (nmol/L)/5-HT7 Ki (nmol/L) (hERG channel; ratio)
CCN(CCN1CCC(c2noc3cc(F)ccc23)CC1)C(=O)C(O)CNC(C)=O (stereo not shown) [Example 71, 3-Acetamide-N-ethyl-N-{2-[4-(6-fluoro-1,2-benzoisoxazol-3-yl)piperidin-1-yl]ethyl}-2-hydroxypropanamide] | <0.05 |  | 2.2 | 6.2 | 223 | 99 | 36 | 25 | 78 | > 10000 | >1624
